Test results published in ChEMBL document CHEMBL1250486, “Synthesis and evaluation of fatty acyl ester derivatives of cytarabine as anti-leukemia agents” (2010).
Active and inactive are the calls of the source. No cut-off for these calls is given here.

Columns and labels:
[1] = tested on: CCRF-CEM; assay: Antiproliferative activity against human CCRF-CEM cells at 1 uM after 96 hrs; type: functional
[2] = tested on: CCRF-CEM; assay: Antiproliferative activity against human CCRF-CEM cells at 1 uM after 24 hrs; type: functional, cell-based

SMILES	Activity [1]	Activity [2]
CCCCCCCCCCCCCC(=O)O[C@H]1[C@H](O)[C@@H](CO)O[C@H]1n1ccc(N)nc1=O	36%	Active
CCCCCCCCCCCCCC(=O)OC[C@H]1O[C@@H](n2ccc(N)nc2=O)[C@@H](O)[C@@H]1O	inactive	–
CCSCCCCCCCCCCCC(=O)OC[C@H]1O[C@@H](n2ccc(N)nc2=O)[C@@H](O)[C@@H]1O	inactive	–
CCSCCCCCCCCCCCC(=O)O[C@H]1[C@H](O)[C@@H](CO)O[C@H]1n1ccc(N)nc1=O	36%	Active
CCCCCCCCCCCCCC(=O)OC[C@H]1O[C@@H](n2ccc(N)nc2=O)[C@@H](OC(=O)CCCCCCCCCCCCC)[C@@H]1O	76%	Active
